# Experimental data published in patent US8729064B2, “Heteroaromatic and aromatic piperazinyl azetidinyl amides as monoacylglycerol lipase inhibitors” (Janssen Pharmaceutica, NV, priority 2009, dated 2014).
# Molecular target: T1, MGL activity in HeLa cell homogenate (Homo sapiens, UniProt Q99685)
# T1 construct: HeLa cells were homogenated with a Polytron; endogenous in cells; host or cells: HeLa cell homogenate
# T1 sequence (Q99685 1-303): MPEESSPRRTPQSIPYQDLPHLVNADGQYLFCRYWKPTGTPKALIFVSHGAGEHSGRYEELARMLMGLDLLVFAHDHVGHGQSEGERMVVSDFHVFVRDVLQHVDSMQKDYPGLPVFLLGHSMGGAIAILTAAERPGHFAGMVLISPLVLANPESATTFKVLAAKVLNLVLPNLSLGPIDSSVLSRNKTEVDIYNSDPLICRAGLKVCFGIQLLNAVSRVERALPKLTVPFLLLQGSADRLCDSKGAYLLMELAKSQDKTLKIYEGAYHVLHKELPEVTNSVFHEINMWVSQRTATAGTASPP
# Test: 2-AG Accumulation Assay in HeLa cell homogenate
# Type: biochemical
# Conditions: compound 1 μM, accumulated 2-AG relative to MAFP 2-AG x100
row,Structure (SMILES),Example 4 % MAFP @ 1 μM [% MAFP]
1,"O=C(c1ccc2nc(C3CCCCC3)oc2c1)N1CC(N2CCN(c3ccccn3)CC2)C1 [Compound 2, (2-Cyclohexyl-benzooxazol-6-yl)-[3-(4-pyridin-2-yl-piperazin-1-yl)-azetidin-1-yl]-methanone]",39.7
2,"O=C(c1cccc2nc(-c3cccc(F)c3)oc12)N1CC(N2CCN(c3ccccn3)CC2)C1 [Compound 3, [2-(3-Fluoro-phenyl)-benzooxazol-7-yl]-[3-(4-pyridin-2-yl-piperazin-1-yl)-azetidin-1-yl]-methanone]",45.7
3,"O=C(c1cccc2nc(-c3ccc(F)cc3)oc12)N1CC(N2CCN(c3ccccn3)CC2)C1 [Compound 6, [2-(4-Fluoro-phenyl)-benzooxazol-7-yl]-[3-(4-pyridin-2-yl-piperazin-1-yl)-azetidin-1-yl]-methanone]",30.6
4,"CC(C)(C)c1nc2ccc(C(=O)N3CC(N4CCN(c5ccccn5)CC4)C3)cc2o1 [Compound 19, (2-tert-Butyl-benzooxazol-6-yl)-[3-(4-pyridin-2-yl-piperazin-1-yl)-azetidin-1-yl]-methanone]",19.9

# Same assay, conditions: compound 10 μM, accumulated 2-AG relative to MAFP 2-AG x100
row,Structure (SMILES),Example 4 % MAFP @ 10 μM [% MAFP]
1,"O=C(c1ccc2nc(C3CCCCC3)oc2c1)N1CC(N2CCN(c3ccccn3)CC2)C1 [Compound 2, (2-Cyclohexyl-benzooxazol-6-yl)-[3-(4-pyridin-2-yl-piperazin-1-yl)-azetidin-1-yl]-methanone]",87.6
2,"O=C(c1cccc2nc(-c3cccc(F)c3)oc12)N1CC(N2CCN(c3ccccn3)CC2)C1 [Compound 3, [2-(3-Fluoro-phenyl)-benzooxazol-7-yl]-[3-(4-pyridin-2-yl-piperazin-1-yl)-azetidin-1-yl]-methanone]",82.9
3,"O=C(c1cccc2nc(-c3ccc(F)cc3)oc12)N1CC(N2CCN(c3ccccn3)CC2)C1 [Compound 6, [2-(4-Fluoro-phenyl)-benzooxazol-7-yl]-[3-(4-pyridin-2-yl-piperazin-1-yl)-azetidin-1-yl]-methanone]",68.8
4,"COc1ccc(-c2nc3cccc(C(=O)N4CC(N5CCN(c6ccccn6)CC5)C4)c3o2)cc1 [Compound 7, [2-(4-Methoxy-phenyl)-benzooxazol-7-yl]-[3-(4-pyridin-2-yl-piperazin-1-yl)-azetidin-1-yl]-methanone]",79.5
5,"CC(C)Cc1cc2cc(C(=O)N3CC(N4CCN(c5ccccn5)CC4)C3)ccc2n1CC(C)C [Compound 8, (1,2-Diisobutyl-1H-indol-5-yl)-[3-(4-pyridin-2-yl-piperazin-1-yl)-azetidin-1-yl]-methanone]",72.9
6,"CC(C)Cn1c(COc2ccccc2)cc2cc(C(=O)N3CC(N4CCN(c5ccccn5)CC4)C3)ccc21 [Compound 9, (1-Isobutyl-2-phenoxymethyl-1H-indol-5-yl)-[3-(4-pyridin-2-yl-piperazin-1-yl)-azetidin-1-yl]-methanone]",67.8
7,"CC(C)(C)Cn1c(-c2ccccc2)cc2cc(C(=O)N3CC(N4CCN(c5ccccn5)CC4)C3)ccc21 [Compound 10, [1-(2,2-Dimethyl-propyl)-2-phenyl-1H-indol-5-yl]-[3-(4-pyridin-2-yl-piperazin-1-yl)-azetidin-1-yl]-methanone]",160.1
8,"O=C(c1ccc2c(c1)cc(COc1ccccc1)n2CC1CCCCC1)N1CC(N2CCN(c3ccccn3)CC2)C1 [Compound 11, (1-Cyclohexylmethyl-2-phenoxymethyl-1H-indol-5-yl)-[3-(4-pyridin-2-yl-piperazin-1-yl)-azetidin-1-yl]-methanone]",160.1
9,"Cn1c(CC2CCCC2)cc2cc(C(=O)N3CC(N4CCN(c5ccccn5)CC4)C3)ccc21 [Compound 12, (2-Cyclopentylmethyl-1-methyl-1H-indol-5-yl)-[3-(4-pyridin-2-yl-piperazin-1-yl)-azetidin-1-yl]-methanone]",142.0
10,"CC(C)Cn1c(-c2ccccc2)cc2cc(C(=O)N3CC(N4CCN(c5ccccn5)CC4)C3)ccc21 [Compound 13, (1-Isobutyl-2-phenyl-1H-indol-5-yl)-[3-(4-pyridin-2-yl-piperazin-1-yl)-azetidin-1-yl]-methanone]",93.5
11,"O=C(c1ccc2[nH]c(CC3CCCCC3)cc2c1)N1CC(N2CCN(c3ccccn3)CC2)C1 [Compound 14, (2-Cyclohexylmethyl-1H-indol-5-yl)-[3-(4-pyridin-2-yl-piperazin-1-yl)-azetidin-1-yl]-methanone]",53.7
12,"COc1ccccc1Cc1nc2cc(C(=O)N3CC(N4CCN(c5ccccn5)CC4)C3)ccc2o1 [Compound 15, [2-(2-Methoxy-benzyl)-benzooxazol-5-yl]-[3-(4-pyridin-2-yl-piperazin-1-yl)-azetidin-1-yl]-methanone]",57.6
13,"COc1ccccc1N1CCN(C2CN(C(=O)c3ccc4c(c3)cc(COc3ccccc3)n4CC(C)C)C2)CC1 [Compound 17, (1-Isobutyl-2-phenoxymethyl-1H-indol-5-yl)-{3-[4-(2-methoxy-phenyl)-piperazin-1-yl]-azetidin-1-yl}-methanone]",25.9
14,"O=C(c1ccc2c(c1)cc(Cc1ccccc1)n2CC1CCCCC1)N1CC(N2CCN(c3ccccn3)CC2)C1 [Compound 18, (2-Benzyl-1-cyclohexylmethyl-1H-indol-5-yl)-[3-(4-pyridin-2-yl-piperazin-1-yl)-azetidin-1-yl]-methanone]",134.6
15,"CC(C)(C)c1nc2ccc(C(=O)N3CC(N4CCN(c5ccccn5)CC4)C3)cc2o1 [Compound 19, (2-tert-Butyl-benzooxazol-6-yl)-[3-(4-pyridin-2-yl-piperazin-1-yl)-azetidin-1-yl]-methanone]",47.3
16,"COc1cccc(-c2nc3cc(C(=O)N4CC(N5CCN(c6ccccn6)CC5)C4)ccc3o2)c1 [Compound 20, [2-(3-Methoxy-phenyl)-benzooxazol-5-yl]-[3-(4-pyridin-2-yl-piperazin-1-yl)-azetidin-1-yl]-methanone]",86.9
17,"COc1ccccc1N1CCN(C2CN(C(=O)c3ccc4c(c3)cc(Cc3ccccc3)n4CC(C)C)C2)CC1 [Compound 21, (2-Benzyl-1-isobutyl-1H-indol-5-yl)-{3-[4-(2-methoxy-phenyl)-piperazin-1-yl]-azetidin-1-yl}-methanone]",29.2
18,"COc1ccccc1N1CCN(C2CN(C(=O)c3ccc4c(c3)cc(COc3ccccc3)n4CC(C)(C)C)C2)CC1 [Compound 22, [1-(2,2-Dimethyl-propyl)-2-phenoxymethyl-1H-indol-5-yl]-{3-[4-(2-methoxy-phenyl)-piperazin-1-yl]-azetidin-1-yl}-methanone]",50.1
19,"COc1ccccc1N1CCN(C2CN(C(=O)c3ccc4c(c3)cc(Cc3ccccc3)n4CC3CCCCC3)C2)CC1 [Compound 23, (2-Benzyl-1-cyclohexylmethyl-1H-indol-5-yl)-{3-[4-(2-methoxy-phenyl)-piperazin-1-yl]-azetidin-1-yl}-methanone]",84.5
20,"COc1ccccc1N1CCN(C2CN(C(=O)c3ccc4c(c3)cc(-c3ccccc3)n4CC(C)(C)C)C2)CC1 [Compound 24, [1-(2,2-Dimethyl-propyl)-2-phenyl-1H-indol-5-yl]-{3-[4-(2-methoxy-phenyl)-piperazin-1-yl]-azetidin-1-yl}-methanone]",58.8
21,"CC(C)(C)Cn1c(-c2ccccc2)cc2cc(C(=O)N3CC(N4CCN(c5ccc(F)cc5)CC4)C3)ccc21 [Compound 25, [1-(2,2-Dimethyl-propyl)-2-phenyl-1H-indol-5-yl]-{3-[4-(4-fluoro-phenyl)-piperazin-1-yl]-azetidin-1-yl}-methanone]",65.8
22,"CC(C)(C)Cn1c(C(C)(C)C)cc2cc(C(=O)N3CC(N4CCN(c5ccccn5)CC4)C3)ccc21 [Compound 26, [2-tert-Butyl-1-(2,2-dimethyl-propyl)-1H-indol-5-yl]-[3-(4-pyridin-2-yl-piperazin-1-yl)-azetidin-1-yl]-methanone]",37.0
23,"COCC(=O)c1c(-c2ccc(C)cc2)[nH]c2ccc(C(=O)N3CC(N4CCN(c5ccccn5)CC4)C3)cc12 [Compound 27, 2-Methoxy-1-{5-[3-(4-pyridin-2-yl-piperazin-1-yl)-azetidine-1-carbonyl]-2-p-tolyl-1H-indol-3-yl}-ethanone]",76.3
24,"CCCc1cc2cc(C(=O)N3CC(N4CCN(c5ccccn5)CC4)C3)ccc2n1CC1CCCCC1 [Compound 28, (1-Cyclohexylmethyl-2-propyl-1H-indol-5-yl)-[3-(4-pyridin-2-yl-piperazin-1-yl)-azetidin-1-yl]-methanone]",77.0
